Experimental data from ChEMBL document CHEMBL6134849, “A Water-Soluble Aggregation-Induced Emission Photosensitizer with Intrinsic Antibacterial Activity as an Antiplanktonic and Antibiofilm Therapeutic Agent” (J Med Chem, 2025).
Active and inactive are the calls of the source. No cut-off for these calls is given here.

Key:
Staphylococcus aureus [1] = assay: Downregulation of lysS expression level in Staphylococcus aureus at 6.25 uM incubated for 1 hr in absence of light irradiation; assay type: functional
[2] = Cytotoxicity against human HFF-1 cells assessed as cell viability at 40 uM in presence of 600 nm light irradiation for 45 mins by MTT assay relative to control; assay type: toxicity, cell-based; conditions: read-out: Activity
[3] = Induction of type-II ROS generation in PBS assessed as increase in singlet oxygen by measuring increase in SOSG fluorescence intensity at 10 uM irradiated with 660 nm 60 mW/cm2 light for 15 mins by SOSG probe based plate reader analysis; assay type: functional
Staphylococcus aureus [4] = assay: In vivo antibacterial activity against methicillin-resistant Staphylococcus aureus ATCC 43300 infected in female BALB/c mouse skin wound infection model assessed as collagen deposition in wound at 90 uM pre-infected with bacteria for 24 hrs followed by topical compound addition for 10 mins in presence of 600 nm 60 mW/cm2 light irradiation for 15 mins and measured on day 6 by H and E staining based analysis; assay type: functional, organism-based; conditions: time 6.0 day
Staphylococcus aureus [5] = assay: Downregulation of div1B expression level in Staphylococcus aureus at 6.25 uM incubated for 1 hr in absence of light irradiation; assay type: functional
Staphylococcus aureus [6] = assay: Downregulation of femX expression level in Staphylococcus aureus at 6.25 uM incubated for 1 hr in absence of light irradiation; assay type: functional
[7] = Induction of […] ROS generation in PBS assessed as increase in hydroxyl radical by measuring increase in HPF fluorescence intensity at 10 uM irradiated with 660 nm 60 mW/cm2 light for 15 mins by HPF probe based plate reader analysis; assay type: functional
Cell membrane [8] = assay: Induction of cell membrane damage in Pseudomonas aeruginosa assessed as protein leakage at 10 uM preincubated with compound for 20 mins followed by 600 nm light irradiation for 45 min by absorption based plate reader analysis; assay type: subcellular; conditions: time 65.0 min
Staphylococcus aureus [9] = assay: In vivo antibacterial activity against methicillin-resistant Staphylococcus aureus ATCC 43300 infected in female BALB/c mouse skin wound infection model assessed as reduction in inflammatory cell infiltration in wound at 90 uM pre-infected with bacteria for 24 hrs followed by topical compound addition for 10 mins in presence of 600 nm 60 mW/cm2 light irradiation for 15 mins and measured on day 6 by Masson trichrome staining based analysis; assay type: functional, organism-based; conditions: time 6.0 day
Staphylococcus aureus [10] = assay: Downregulation of hisS expression level in Staphylococcus aureus at 6.25 uM incubated for 1 hr in absence of light irradiation; assay type: functional
Staphylococcus aureus [11] = assay: Downregulation of murB expression level in Staphylococcus aureus at 6.25 uM incubated for 1 hr in absence of light irradiation; assay type: functional
Staphylococcus aureus [12] = assay: In vivo antibacterial activity against methicillin-resistant Staphylococcus aureus ATCC 43300 infected in female BALB/c mouse skin wound infection model assessed as collagen deposition in wound at 90 uM pre-infected with bacteria for 24 hrs followed by topical compound addition for 10 mins in presence of 600 nm 60 mW/cm2 light irradiation for 15 mins and measured on day 6 by Masson trichrome staining based analysis; assay type: functional, organism-based; conditions: time 6.0 day
Staphylococcus aureus [13] = assay: Downregulation of gltX expression level in Staphylococcus aureus at 6.25 uM incubated for 1 hr in absence of light irradiation; assay type: functional
Cell membrane [14] = assay: Induction of cell membrane damage in Staphylococcus aureus assessed as DNA leakage at 10 uM preincubated with compound for 20 mins followed by 600 nm light irradiation for 45 min by absorption based plate reader analysis; assay type: subcellular; conditions: time 65.0 min
Pseudomonas aeruginosa [15] = assay: Selective drug uptake in Pseudomonas aeruginosa co-cultured with human HFF-1 cells by measuring fluorescence signal at 10 uM incubated for 20 mins; assay type: ADME, organism-based; conditions: hff-1, 20 min
Staphylococcus aureus [16] = assay: Downregulation of thrS expression level in Staphylococcus aureus at 6.25 uM incubated for 1 hr in absence of light irradiation; assay type: functional
Staphylococcus aureus [17] = assay: Downregulation of murC expression level in Staphylococcus aureus at 6.25 uM incubated for 1 hr in absence of light irradiation; assay type: functional
[18] = Induction of type-I ROS generation in PBS assessed as increase in singlet oxygen by measuring increase in SOSG fluorescence intensity at 10 uM irradiated with 660 nm 60 mW/cm2 light for 15 mins by SOSG probe based plate reader analysis; assay type: functional
[19] = Drug uptake in human HFF-1 cells co-cultured with Staphylococcus aureus by measuring fluorescence signal at 10 uM incubated for 20 mins; assay type: ADME, cell-based; conditions: hff-1, 20 min
Cell membrane [20] = assay: Induction of cell membrane depolarization in Staphylococcus aureus assessed as increase in fluorescence intensity in absence of light irradiation by Disc3(5) dye based fluorescence assay; assay type: subcellular
Staphylococcus aureus [21] = assay: Downregulation of alr1 expression level in Staphylococcus aureus at 6.25 uM incubated for 1 hr in absence of light irradiation; assay type: functional
Staphylococcus aureus [22] = assay: Downregulation of femB expression level in Staphylococcus aureus at 6.25 uM incubated for 1 hr in absence of light irradiation; assay type: functional
Cell membrane [23] = assay: Induction of cell membrane damage in Staphylococcus aureus at 12.5 to 25 uM incubated for 3 hrs under dark condition by scanning electron microscopic analysis; assay type: subcellular; conditions: dose 12.5-25 µM
Pseudomonas aeruginosa [24] = assay: In vivo antibacterial activity against […] Pseudomonas aeruginosa ATCC 27853 infected in female BALB/c mouse skin wound infection model assessed as reduction in wound area at 90 uM pre-infected with bacteria for 24 hrs followed by topical compound addition for 10 mins in presence of 600 nm 60 mW/cm2 light irradiation for 15 mins and measured on day 4; assay type: functional, organism-based; conditions: time 4.0 day
Staphylococcus aureus [25] = assay: Downregulation of asnS expression level in Staphylococcus aureus at 6.25 uM incubated for 1 hr in absence of light irradiation; assay type: functional
Staphylococcus aureus [26] = assay: Downregulation of glmM expression level in Staphylococcus aureus at 6.25 uM incubated for 1 hr in absence of light irradiation; assay type: functional
Staphylococcus aureus [27] = assay: Downregulation of murD expression level in Staphylococcus aureus at 6.25 uM incubated for 1 hr in absence of light irradiation; assay type: functional
Staphylococcus aureus [28] = assay: Downregulation of hlgB protein expression in Staphylococcus aureus under light irradiation; assay type: functional
Staphylococcus aureus [29] = assay: Downregulation of spoVG expression level in Staphylococcus aureus at 6.25 uM incubated for 1 hr in absence of light irradiation; assay type: functional
Cell membrane [30] = assay: Induction of cell membrane damage in Staphylococcus aureus assessed as RNA leakage at 10 uM preincubated with compound for 20 mins followed by 600 nm light irradiation for 45 min by absorption based plate reader analysis; assay type: subcellular; conditions: time 65.0 min
Staphylococcus aureus [31] = assay: Downregulation of glyQS expression level in Staphylococcus aureus at 6.25 uM incubated for 1 hr in absence of light irradiation; assay type: functional
Staphylococcus aureus [32] = assay: Downregulation of engB expression level in Staphylococcus aureus at 6.25 uM incubated for 1 hr in absence of light irradiation; assay type: functional
Staphylococcus aureus [33] = assay: Downregulation of sle1 expression level in Staphylococcus aureus at 6.25 uM incubated for 1 hr in absence of light irradiation; assay type: functional
Staphylococcus aureus [34] = assay: Downregulation of ileS expression level in Staphylococcus aureus at 6.25 uM incubated for 1 hr in absence of light irradiation; assay type: functional
Staphylococcus aureus [35] = assay: Downregulation of serS expression level in Staphylococcus aureus at 6.25 uM incubated for 1 hr in absence of light irradiation; assay type: functional

C#CCC[n+]1c(/C=C/c2ccc(-c3ccc(N(c4ccc(OCCC[N+](C)(C)C)cc4)c4ccc(OCCC[N+](C)(C)C)cc4)cc3)s2)sc2ccccc21.[Br-].[Br-].[Br-]
Activity (Staphylococcus aureus [1]): Active
viability at 0.75 h, 40 µM [2]: < 90%
Activity [3]: Active
Activity (Staphylococcus aureus [4]): Active
Activity (Staphylococcus aureus [5]): Active
Activity (Staphylococcus aureus [6]): Active
Activity [7]: Active
Activity (Cell membrane [8]): Active
Activity (Staphylococcus aureus [9]): Active
Activity (Staphylococcus aureus [10]): Active
Activity (Staphylococcus aureus [11]): Active
Activity (Staphylococcus aureus [12]): Active
Activity (Staphylococcus aureus [13]): Active
Activity (Cell membrane [14]): Active
Drug uptake (Pseudomonas aeruginosa [15]): Active
Activity (Staphylococcus aureus [16]): Active
Activity (Staphylococcus aureus [17]): Active
Activity [18]: Active
Drug uptake [19]: Not_active
Activity (Cell membrane [20]): Dose-dependent-effect
Activity (Staphylococcus aureus [21]): Active
Activity (Staphylococcus aureus [22]): Active
Activity (Cell membrane [23]): Active
Activity (Pseudomonas aeruginosa [24]): Active
Activity (Staphylococcus aureus [25]): Active
Activity (Staphylococcus aureus [26]): Active
Activity (Staphylococcus aureus [27]): Active
Activity (Staphylococcus aureus [28]): Active
Activity (Staphylococcus aureus [29]): Active
Activity (Cell membrane [30]): Active
Activity (Staphylococcus aureus [31]): Active
Activity (Staphylococcus aureus [32]): Active
Activity (Staphylococcus aureus [33]): Active
Activity (Staphylococcus aureus [34]): Active
Activity (Staphylococcus aureus [35]): Active
